# Data taken from patent publication US5032594A, “Tricyclic fused pyrimidine derivatives, their production and use” (Takeda Chemical Industries, Ltd., priority 1989, dated 1991).
# Read-outs that look alike come from different tables or passages of the source.
# Experiments:
# [1] = tested on: Retention deficit induced by scopolamine; assay: Passive avoidance task, retention deficit induced by scopolamine; type: in vivo, mice; details: scopolamine 1 mg/kg i.p.; for Avoidance Time (%): p.o., 3 mg/kg, percent change rate relative to control (100), P < 0.05; for recovery of memory: orally administered 5% gum arabic suspension, in words
# Excerpt: Actions of the compound (8) obtained in Working Example 8 and the compound (9) obtained in Working Example 9 on amelioration of memory impairment was studied using the passive avoidance task shown below. Five-week old male mice were placed first in the light chamber of a passive avoidance learning apparatus consisting of light and dark chambers. The mice immediately moved into the dark chamber, then an unescapable electric shock (0.5 mA, 3 sec.) was applied to the animals. These animals retained for several weeks the memory that they received the electric shock. This memory retention was disrupted by the following procedure, and the effect of the compounds (8) and (9) was tested. Thirty minutes prior to the application of electric shock, these animals were each administered with scopolamine (1 mg/kg, i.p), then these mice lost the memory of this experience of an electric shock.
# On the following day, a retention recovery test was conducted. These mice were again placed in the light chamber of the passive avoidance apparatus and the time until the animals moved into the dark chamber (avoidance time) was measured. These mice which lost the memory of the experience of an electric shock moved again into the dark chamber in 10 to 20 seconds. […] The effects of these test compounds were examined by comparing the average value (11-15 animals/group) of the period of time during which the mice stayed in the light chamber with that of the control group (administered only a suspension of 5% gum arabic containing no test compound). The results were expressed by the percent change rate relative to the mean value (100) in the control group (Table 5).
# A2 receptor = biological target: T1, A2 receptor (Rattus norvegicus, UniProt P30543); assay: A2 receptor antagonism (inhibition of 3H-NECA binding, rat corpus striatum membranes); details: in presence of 50 nM cyclopentyladenosine, read-out: A2 receptor (Ki, μM), binding-inhibition constant
# T1 construct: corpus striatun (A2 receptor); from tissue; host or cells: rat corpus striatum membranes
# Protocol: (§1) Preparation of membranes was performed in accordance with the method of Burns et al. described in Proc. Natl. Acad. Sci., 77, 5547 (1980). More specifically, a rat was decapitated, and the cerebral cortex (A1 receptor) or corpus striatun (A2 receptor) was suspended using Polyton in a Tris-HCl buffer solution of pH 7.7 (50 mM, 20 ml). This suspension was centrifuged at 48,000 g for 10 minutes, and the pellet was resuspended and centrifuged in a similar manner. The pellet was resuspended in a Tris-HCl buffer solution (50 mM), to which was added adenosine deaminase (2U/ml). The mixture was incubated at 37° C. for 30 minutes. This suspension was centrifuged and the pellet was stored at -20° C.
# (§2) Using the above-mentioned pellet, adenosine antagonism (A1 and A2) was examined.
# The experiment was performed analogously to that for A1 receptor antagonism. Using ^3 H-adenosine-5'-ethylcarboxamide (^3 H-NECA; about 0.1 μCi) as ligand, the experiment was conducted in the presence of 50 nM of cyclopentyladenosine. The nonspecific binding amount was measured in the presence of 10^-4 M of cyclopentyladenosine.
# A1 receptor = biological target: T2, A1 receptor (Rattus norvegicus, UniProt P25099); assay: A1 receptor antagonism (inhibition of 3H-cyclohexyladenosine binding, rat cerebral cortex membranes)
# T2 construct: a rat was decapitated, and the cerebral cortex (A1 receptor); from tissue; host or cells: rat cerebral cortex membranes
# T2 sequence (P25099 1-326): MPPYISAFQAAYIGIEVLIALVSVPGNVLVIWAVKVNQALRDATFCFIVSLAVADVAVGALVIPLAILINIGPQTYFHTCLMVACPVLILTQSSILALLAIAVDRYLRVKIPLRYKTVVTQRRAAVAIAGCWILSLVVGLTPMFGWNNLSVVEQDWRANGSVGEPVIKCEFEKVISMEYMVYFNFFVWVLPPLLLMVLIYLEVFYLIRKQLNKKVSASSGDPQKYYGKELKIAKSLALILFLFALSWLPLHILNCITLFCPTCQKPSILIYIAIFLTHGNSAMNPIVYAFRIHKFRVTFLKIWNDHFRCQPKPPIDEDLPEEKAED
# Protocol: as §1, §2
# The above-mentioned pellet was thawed at room temperature and suspended in a Tris-HCl buffer solution. To the suspension (0.9 ml) were added ^3 H-cyclohexyladenosine (^3 H-CHA)(ca. 0.05 μCi, 0.1 ml) and the test drug (10 μl), and the mixture was incubated at 25° C. for 60 minutes. The reaction mixture was subjected to filtration with GF/B filter. The filter was washed four times with a Tris-HCl buffer solution. The radioactivity on the filter was measured by liquid scintillation. The nonspecific binding amount was measured in the presence of 10^-5 M of L-phenyl isopropyladenosine.
# [2] = tested on: impaired learning after cerebral ischemia; assay: Passive avoidance learning impaired after cerebral ischemia; type: in vivo, Wistar rats
# Protocol: As in the case of the above test (3-1), Wistar rats were used to produce an experimental model for cerebral ischemia. In this experiment, the time during which cerebral ischemia was caused in the animals was 5 minutes. By this treatment, a passive avoidance learning impairments was induced. The passive avoidance learning was tested in accordance with the method in Experiment 1. The test compound was suspended in a 5% gum arabic vehicle. Test animals were administered with this suspension three times, i.e. one hour prior to causing cerebral ischemia, two hours prior to a passive avoidance learning and two hours prior to the test. The control group was administered with only a 5% gum arabic suspension.
# [3] = tested on: motility depression (depression of consciousness level) associated with cerebral ischemia; assay: Recovery of motility after experimental cerebral ischemia; type: in vivo, Wistar rats; details: for Time to reappearance of spontaneous motility: control 81.5 ± 13.3
# Excerpt: Experimental cerebral ischemia was produced in accordance with the method of Pulsinelli et al. (Stroke 10, 267-272, 1979), using Wistar rats 8-week old. On the first day of the experiment, the rats were anesthetized with pentobarbital, and their occipital skin and muscle were incised along the median line, then their vertebral arteries were cauterized bilaterally, and their ventral necks were incised, the bilateral common carotid arteries were separated from the surrounding tissue, to which a thread was applied. On the next day, the common carotid arteries were drawn out by the use of this thread under anaesthetic conditions, and occluded with clips for 30 minutes. By this treatment, serious cerebral ischemia was induced. After 30 minutes' occlusion, the clip was removed to allow the cerebral circulation to resume. Time to recovery of righting reflex and time to reappearance of spontaneous motor activity were measured on individual test animals. The test compound was orally administered to the animals as a 5% suspension in gum arabic one hour before causing the cerebral ischemia and immediately after the resumption of cerebral circulation. The control group was orally administered with only a 5% gum arabic suspension.
# [4] = rat cerebral cortex, 3H-CHA, 25° C., 60 minutes, read-out: A1 receptor (Ki, μM), binding-inhibition constant
# T1 sequence (P30543 whole entry): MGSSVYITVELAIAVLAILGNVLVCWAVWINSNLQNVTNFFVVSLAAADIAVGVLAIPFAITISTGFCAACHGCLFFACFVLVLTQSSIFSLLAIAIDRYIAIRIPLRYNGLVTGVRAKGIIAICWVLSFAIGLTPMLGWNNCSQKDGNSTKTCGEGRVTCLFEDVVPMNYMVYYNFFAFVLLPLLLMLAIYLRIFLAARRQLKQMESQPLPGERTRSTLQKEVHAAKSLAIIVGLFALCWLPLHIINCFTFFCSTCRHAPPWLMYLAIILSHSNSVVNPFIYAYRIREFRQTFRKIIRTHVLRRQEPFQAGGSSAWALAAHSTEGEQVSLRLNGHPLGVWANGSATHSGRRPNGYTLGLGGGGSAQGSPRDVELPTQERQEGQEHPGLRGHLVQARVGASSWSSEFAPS
SMILES,Ki (A2 receptor) [µM],Ki (A1 receptor; [4]) [µM],also measured
CCCn1c(=O)c2c(nn3cc[nH]c23)n(Cc2ccccc2)c1=O [compound 8],0.26,0.034,Avoidance Time (%) [1]: 243%
CCCn1c(=O)c2c(nn3cc(-c4cccc(OC)c4)[nH]c23)n(Cc2ccccc2)c1=O [compound 21],0.12,0.0069,–
CCCCc1cn2nc3c(c(=O)n(CCC)c(=O)n3Cc3ccccc3)c2[nH]1 [compound 17],0.35,0.0051,–
CCCn1c(=O)c2c(nn3cc[nH]c23)n(CCCc2ccccc2)c1=O [compound 14],2.5,0.11,–
CCCn1c(=O)c2c(nn3cc[nH]c23)n(CCc2ccccc2)c1=O [compound 13],16,0.53,–
CCCCOc1ccc(-c2cn3nc4c(c(=O)n(CCC)c(=O)n4Cc4ccccc4)c3[nH]2)cc1 [compound 24],> 0.5,0.053,–
CCCCn1c(=O)[nH]c(=O)c2c3n(nc21)CCN3 [compound 29],39,18,–
"CCCn1c(=O)c2c(nn3cc[nH]c23)n(Cc2ccccc2)c1=O [Working Example 8, 1-Benzyl-3-propyl-1,2,3,4-tetrahydro-5H-imidazo[2',1':5,1]pyrazolo[3,4-d]pyrimidine-2,4-dione]",–,–,"Avoidance time ([2]; 3 mg/kg and 10 mg/kg, in words): prolonged the avoidance time, in the doses of 3 mg/kg and 10 mg/kg, dose-dependently; Avoidance time ([2]; 3 mg/kg, 5 minutes ischemia, median, control 17.5): 152.8 s; Avoidance time ([2]; 10 mg/kg, 5 minutes ischemia, median, control 17.5, P < 0.05): 285.9 s; recovery of memory [1]: recovered the memory; Time to recovery of righting reflex ([3]; 3 mg/kg oral, 30 minutes occlusion, average ± standard error, control 29.8 ± 5.9): 21.0 ± 3.2 min; Time to reappearance of spontaneous motility ([3]; 3 mg/kg oral, 30 minutes occlusion, average ± standard error): 55.2 ± 6.5 min; Time to recovery of righting reflex ([3]; 10 mg/kg oral, 30 minutes occlusion, average ± standard error, control 29.8 ± 5.9): 16.7 ± 2.6 min; Time to reappearance of spontaneous motility ([3]; 10 mg/kg oral, 30 minutes occlusion, average ± standard error, P < 0.05): 43.8 ± 4.7 min; Time to recovery of righting reflex ([3]; in words): tended to shorten the time to recovery of righting reflex dosedependently; time to reappearance of spontaneous motor activity ([3]; in words): shortened the time to reappearance of spontaneous motor activity"
CCCn1c(=O)c2c3n(nc2n(Cc2cccc(Cl)c2)c1=O)CCN3 [compound 3],4.2,0.19,–
CCCn1c(=O)c2c(nn3cc[nH]c23)n(Cc2ccc(Cl)cc2)c1=O [compound 9],0.37,0.05,Avoidance Time (%) [1]: 262%
CCCCn1c(=O)n(Cc2ccccc2)c(=O)c2c1nn1cc[nH]c21 [compound 12],1.1,0.2,–
CCCn1c(=O)c2c(nn3cc[nH]c23)n(Cc2cccc(Cl)c2)c1=O [compound 10],0.46,0.098,–
CCCn1c(=O)c2c(nn3cc(-c4ccccc4Cl)[nH]c23)n(Cc2ccccc2)c1=O [compound 27],> 0.5,0.58,–
CCCn1c(=O)c2c(nn3cc[nH]c23)n(Cc2ccc(Cl)cc2)c1=O [Working Example 9],–,–,recovery of memory [1]: recovered the memory
CCCn1c(=O)c2c(nn3cc(-c4cccc(Cl)c4)[nH]c23)n(Cc2ccccc2)c1=O [compound 26],> 0.5,0.037,–
CCCn1c(=O)c2c3n(nc2n(Cc2ccccc2Cl)c1=O)CCN3 [compound 4],6.5,0.27,–
CCCn1c(=O)c2c3n(nc2n(Cc2ccccc2)c1=O)CCN3 [compound 1],3.3,0.12,–
CCCn1c(=O)c2c(nn3cc(-c4ccc(C)cc4)[nH]c23)n(Cc2ccccc2)c1=O [compound 25],> 0.5,0.58,–
CCCCn1c(=O)n(Cc2ccccc2)c(=O)c2c3n(nc21)CCN3 [compound 5],4.5,0.67,–
CCCn1c(=O)c2c(nn3cc(-c4ccc(OC)cc4)[nH]c23)n(Cc2ccccc2)c1=O [compound 22],0.21,0.0047,–
CCCn1c(=O)c2c(nn3c4c([nH]c23)CCCC4)n(Cc2ccccc2)c1=O [compound 19],0.19,0.027,–
CCCn1c(=O)c2c(nn3cc(-c4ccccc4)[nH]c23)n(Cc2ccccc2)c1=O [compound 15],0.28,0.01,–
CCCn1c(=O)c2c(nn3c(C)c(C)[nH]c23)n(Cc2ccccc2)c1=O [compound 16],0.43,0.024,–
CCCn1c(=O)c2c3n(nc2n(Cc2ccc(Cl)cc2)c1=O)CCN3 [compound 2],2.9,0.14,–
CCCn1c(=O)c2c(nn3cc(-c4ccccc4OC)[nH]c23)n(Cc2ccccc2)c1=O [compound 23],0.5,0.53,–
CCCn1c(=O)[nH]c2nn3cc[nH]c3c2c1=O [compound 30],0.42,–,Ki (A1 receptor): 0.42 µM
CCCn1c(=O)c2c(nn3cc[nH]c23)n(Cc2ccccc2Cl)c1=O [compound 11],1,0.092,–
